Structures can show the parent of a compound that is named as a salt.

Results on 18 molecules are retold here after patent US11267797B2, “Anticancer agent” (Kyoto Pharmaceutical Industries, Ltd., priority 2014, dated 2022).

The data set is described as follows: Blood concentration after oral administration to rat or dog. It counts as in vivo. The following applies: gavage to male SD rat or male beagle, suspended in 0.5% methylcellulose, 30 mg/kg or 100 mg/kg, respectively, HPLC or LC-MS/MS; for blood concentration of compound (A) after administration of the Example compound: 0.25-24 hr. The procedure: Experimental Example 2: Blood Concentration after Oral Administration to Rat or Dog
Compound (A) or Example compound suspended in 0.5% methylcellulose solution was administered by gavage to male SD rat or male beagle at a dose of 30 mg/kg or 100 mg/kg, respectively. At 0.25, 0.5, 1, 2, 4, 6 and 24 hr after administration, blood samples were collected from the cervical vein with a 1 mL syringe and was added in a 2.0 mL tube to which heparin was added. The blood was treated with acetonitrile, and the blood concentration of compound (A) was determined by using HPLC or LC-MS/MS.

As for `O=C(/C=C(\O)c1cc2c(o1)C(=O)c1ccccc1C2=O)OCCO` [Example 13, 2-Hydroxyethyl 3-(4,9-dioxo-4,9-dihydro-naphtho[2,3-b]furan-2-yl)-3-hydroxy-acrylate Ethanolamine Salt], the “blood concentration of compound (A) after administration of the Example compound” value (from here on “blood concentration … of the Example compound”) was “emerged in the blood over time” and the “maximum blood concentration of compound (A), compared with administration of compound (A) itself” value is given as “higher”.

For `O=C(/C=C(\O)c1cc2c(o1)C(=O)c1ccccc1C2=O)OCCCO` [Example 133], the “blood concentration … of the Example compound” value is “emerged in the blood over time” and the “maximum blood concentration of compound (A), compared with administration of compound (A) itself” value is “higher”.

In the case of `CC(C)N1CC(OC(=O)CC(=O)c2cc3c(o2)C(=O)c2ccccc2C3=O)C1.Cl` [Example 114], the “blood concentration … of the Example compound” value was “emerged in the blood over time” and the “maximum blood concentration of compound (A), compared with administration of compound (A) itself” value is on record as “higher”.

Turning to `CC(C)[C@H](N)C(=O)OCCCOC(=O)CC(=O)c1cc2c(o1)C(=O)c1ccccc1C2=O.Cl` [Example 120], the “blood concentration … of the Example compound” value is “emerged in the blood over time” and the “maximum blood concentration of compound (A), compared with administration of compound (A) itself” value is “higher”.

As for `O=C(/C=C(\O)c1cc2c(o1)C(=O)c1ccccc1C2=O)OCCOCCO` [Example 125], the “blood concentration … of the Example compound” value was “emerged in the blood over time” and the “maximum blood concentration of compound (A), compared with administration of compound (A) itself” value is on record as “higher”.

`O=C(/C=C(\O)c1cc2c(o1)C(=O)c1ccccc1C2=O)OCC(O)CO` (stereo not drawn) [Example 95]: the “blood concentration … of the Example compound” value is recorded as “emerged in the blood over time” and the “maximum blood concentration of compound (A), compared with administration of compound (A) itself” value was “higher”.

For the molecule `N[C@@H](CO)C(=O)OCCOC(=O)CC(=O)c1cc2c(o1)C(=O)c1ccccc1C2=O` [Example 75], the “blood concentration … of the Example compound” value is “emerged in the blood over time” and the “maximum blood concentration of compound (A), compared with administration of compound (A) itself” value is reported as “higher”.

Regarding `COCCOC(=O)CC(=O)c1cc2c(o1)C(=O)c1ccccc1C2=O` [Example 79], the “blood concentration … of the Example compound” value is “emerged in the blood over time” and the “maximum blood concentration of compound (A), compared with administration of compound (A) itself” value is “higher”.

For `O=C(/C=C(\O)c1cc2c(o1)C(=O)c1ccccc1C2=O)OCCOCC(O)CO` (stereo not drawn) [Example 129], the “blood concentration … of the Example compound” value is “emerged in the blood over time” and the “maximum blood concentration of compound (A), compared with administration of compound (A) itself” value is recorded as “higher”.

For `Cl.O=C(CC(=O)c1cc2c(o1)C(=O)c1ccccc1C2=O)OCC#CCN1CCCC1` [Example 116], the “blood concentration … of the Example compound” value is given as “emerged in the blood over time” and the “maximum blood concentration of compound (A), compared with administration of compound (A) itself” value is listed as “higher”.

For the molecule `O=C(/C=C(\[O-])c1cc2c(o1)C(=O)c1ccccc1C2=O)OCC(O)CO.[Na+]` (stereo not drawn) [Example 88], the “blood concentration … of the Example compound” value was “emerged in the blood over time” and the “maximum blood concentration of compound (A), compared with administration of compound (A) itself” value is recorded as “higher”.

With `C[C@H](N)C(=O)OCCOC(=O)CC(=O)c1cc2c(o1)C(=O)c1ccccc1C2=O.Cl` [Example 74], the “blood concentration … of the Example compound” value is listed as “emerged in the blood over time” and the “maximum blood concentration of compound (A), compared with administration of compound (A) itself” value is listed as “higher”.

With `COCC(C)(C)C(=O)OC(C)OC(=O)CC(=O)c1cc2c(o1)C(=O)c1ccccc1C2=O` (stereo not drawn) [Example 54], the “blood concentration … of the Example compound” value is “emerged in the blood over time” and the “maximum blood concentration of compound (A), compared with administration of compound (A) itself” value is “higher”.

For `O=C(/C=C(\O)c1cc2c(o1)C(=O)c1ccccc1C2=O)OCC(CO)CO` [Example 126], the “blood concentration … of the Example compound” value is on record as “emerged in the blood over time” and the “maximum blood concentration of compound (A), compared with administration of compound (A) itself” value was “higher”.

Take `CC(OC(=O)CC(=O)c1cc2c(o1)C(=O)c1ccccc1C2=O)OC(=O)OCC1COC(C)(C)O1` (stereo not drawn) [Example 66]: the “blood concentration … of the Example compound” value is listed as “emerged in the blood over time” and the “maximum blood concentration of compound (A), compared with administration of compound (A) itself” value is on record as “higher”.

Regarding `CCN(CC)CC#CCOC(=O)CC(=O)c1cc2c(o1)C(=O)c1ccccc1C2=O.Cl` [Example 93], the “blood concentration … of the Example compound” value is recorded as “emerged in the blood over time” and the “maximum blood concentration of compound (A), compared with administration of compound (A) itself” value is reported as “higher”.

Regarding `CC(OC(=O)CC(=O)c1cc2c(o1)C(=O)c1ccccc1C2=O)OC(=O)OC[C@@H](O)CO` (stereo partly drawn) [Example 65], the “blood concentration … of the Example compound” value is recorded as “emerged in the blood over time” and the “maximum blood concentration of compound (A), compared with administration of compound (A) itself” value is recorded as “higher”.

Take `O=C(CC(=O)c1cc2c(o1)C(=O)c1ccccc1C2=O)OCOC(=O)C(O)CO` (stereo not drawn) [Example 60]: the “blood concentration … of the Example compound” value is “emerged in the blood over time” and the “maximum blood concentration of compound (A), compared with administration of compound (A) itself” value is given as “higher”.
